According to US9670227B2, “Thienopyrimidine derivatives, a process for their preparation and pharmaceutical compositions containing them” (LES LABORATOIRES SERVIER, priority 2013, dated 2017):
Read-outs that look alike come from different tables or passages of the source.

Target: Mcl-1 protein (UniProtKB primary accession number: Q07820) (Homo sapiens, UniProt Q07820)
Assay: Inhibition of Mcl-1 by fluorescence polarisation, Method 1
Format: binding
Settings: for IC50: read-out: IC50 (M) Mcl-1 FP; for percentage fluorescence polarisation inhibition, Mcl-1 FP: partial inhibitors, @ 10 uM test compound
Summary of the method: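 Buffer of 10 mM HEPES pH 7.4 with 150 mM NaCl and 0.05% Tween 20 held 5 nM Mcl-1 and 1 nM fluorescein-tagged ligand (final). Compounds were tested as 11-point serial dilutions at 5% final DMSO, and binding was read by FP.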

[1] = fluorescence polarisation test, Method 1, or Method 2 where the value is underlined (underlining not visible)
[2] = fluorescence polarisation, Method 1, or Method 2
[3] = fluorescence polarisation test, Method 2 values are underlined in the patent (underlining not visible here)

Sequence of Mcl-1 protein (Q07820 whole entry): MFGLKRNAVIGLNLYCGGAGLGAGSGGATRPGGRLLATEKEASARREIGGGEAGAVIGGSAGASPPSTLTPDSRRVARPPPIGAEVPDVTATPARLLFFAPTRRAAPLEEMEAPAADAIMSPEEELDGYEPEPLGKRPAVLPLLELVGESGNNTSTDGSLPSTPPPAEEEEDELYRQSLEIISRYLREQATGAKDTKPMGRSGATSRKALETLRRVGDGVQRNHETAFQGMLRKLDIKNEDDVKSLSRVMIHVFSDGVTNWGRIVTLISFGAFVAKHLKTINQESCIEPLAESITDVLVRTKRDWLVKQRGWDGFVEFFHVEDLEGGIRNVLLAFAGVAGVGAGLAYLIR

Work on `CCN(C)CCOc1ccc(-c2c(-c3ccc(F)cc3)sc3ncnc(OC(Cc4ccccc4OCc4ccnc(-c5ccccc5F)n4)C(=O)OCCOC)c23)c(C)c1Cl` [Example 803, 2-methoxyethyl (2R)-2-{[(5Sa)-5-(3-chloro-4-{2-[ethyl(methyl)amino]ethoxy}-2-methylphenyl)-6-(4-fluorophenyl)thieno[2,3-d]pyrimidin-4-yl]oxy}-3-(2-{[2-(2-fluorophenyl)pyrimidin-4-yl]methoxy}phenyl)propanoate] yielded an IC50 [1] of 3.14e-06 M.
For `CC#Cc1sc2ncnc(O[C@H](Cc3ccccc3OCc3ccnc(-c4ccccc4OC)n3)C(=O)O)c2c1-c1ccc(OCCN2CCN(C)CC2)c(Cl)c1C` [Example 482, (2R)-2-{[(5Sa)-5-{3-chloro-2-methyl-4-[2-(4-methylpiperazin-1-yl)ethoxy]phenyl}-6-(prop-1-yn-1-yl)thieno[2,3-d]pyrimidin-4-yl]oxy}-3-(2-{[2-(2-methoxyphenyl)pyrimidin-4-yl]methoxy}phenyl)propanoic acid], the IC50 [2] was 7.4e-09 M.
`CCC(=O)OC(C)OC(=O)C(Cc1ccccc1OCc1ccnc(-c2ccccc2OC)n1)Oc1ncnc2sc(-c3ccc(F)cc3)c(-c3ccc(OCCN4CCN(C)CC4)c(Cl)c3C)c12` [Example 860, 1-(propanoyloxy)ethyl (2R)-2-{[(5Sa)-5-{3-chloro-2-methyl-4-[2-(4-methylpiperazin-1-yl)ethoxy]phenyl}-6-(4-fluorophenyl)thieno[2,3-d]pyrimidin-4-yl]oxy}-3-(2-{[2-(2-methoxyphenyl)pyrimidin-4-yl]methoxy}phenyl)propanoate] showed an IC50 [1] of 2.04e-07 M.
Compound `COCCCc1sc2ncnc(OC(Cc3ccccc3OCc3ccnc(OC)n3)C(=O)O)c2c1-c1ccc(OCCN2CCN(C)CC2)c(Cl)c1C` [Example 599, (2R)-2-{[(5Sa)-5-{3-chloro-2-methyl-4-[2-(4-methylpiperazin-1-yl)ethoxy]phenyl}-6-(3-methoxypropyl)thieno[2,3-d]pyrimidin-4-yl]oxy}-3-{2-[(2-methoxypyrimidin-4-yl)methoxy]phenyl}propanoic acid] has an IC50 [2] of 1.1e-08 M.
`Cc1c(-c2c(-c3ccco3)sc3ncnc(OC(Cc4ccccc4SCC(F)(F)F)C(=O)O)c23)ccc(OCCN2CCN(C)CC2)c1Cl` [Example 361, (2S)-2-{[(5Ra)-5-{3-chloro-2-methyl-4-[2-(4-methylpiperazin-1-yl)ethoxy]phenyl}-6-(furan-2-yl)thieno[2,3-d]pyrimidin-4-yl]oxy}-3-{2-[(2,2,2-trifluoroethyl)sulfanyl]phenyl}propanoic acid] gave an IC50 [3] of 7.1e-07 M.
For `CCOC(=O)[C@@H](Cc1ccccc1OCc1cnccn1)Oc1ncnc2sc(-c3ccc(F)cc3)c(-c3ccc(OCCN4CCOCC4)c(Cl)c3C)c12` [Example 632, ethyl (2R)-2-{[(5Sa)-5-{3-chloro-2-methyl-4-[2-(morpholin-4-yl)ethoxy]phenyl}-6-(4-fluorophenyl)thieno[2,3-d]pyrimidin-4-yl]oxy}-3-[2-(pyrazin-2-ylmethoxy)phenyl]propanoate], the “percentage fluorescence polarisation inhibition, Mcl-1 FP” value was 41.8% @ 10 uM.
`COc1ncc(-c2ccsc2)c(COc2ccccc2CC(Oc2ncnc3sc(-c4ccc(F)cc4)c(-c4ccc(OCCN5CCN(C)CC5)c(Cl)c4C)c23)C(=O)O)n1` [Example 100, (2R)-2-{[(5Sa)-5-{3-chloro-2-methyl-4-[2-(4-methylpiperazin-1-yl)ethoxy]phenyl}-6-(4-fluorophenyl)thieno[2,3-d]pyrimidin-4-yl]oxy}-3-(2-{[2-methoxy-5-(thiophen-3-yl)pyrimidin-4-yl]methoxy}phenyl)propanoic acid] showed an IC50 [3] of 1.2e-08 M.
`Cc1c(-c2c(-c3ccc(F)cc3)sc3ncnc(OC(Cc4ccccc4OCC4CCCO4)C(=O)O)c23)ccc(OCCN2CCOCC2)c1Cl` [Example 648, (2R)-2-{[(5Sa)-5-{3-chloro-2-methyl-4-[2-(morpholin-4-yl)ethoxy]phenyl}-6-(4-fluorophenyl)thieno[2,3-d]pyrimidin-4-yl]oxy}-3-{2-[(2R)-tetrahydrofuran-2-ylmethoxy]phenyl}propanoic acid] showed an IC50 [2] of 1.4e-08 M.
Work on `COc1ccccc1CC(Oc1ncnc2sc(-c3ccc(F)cc3)c(-c3ccc(OCCN4CCN(C)CC4)c(Cl)c3C)c12)C(=O)O` [Example 1, (2R)-2-{[(5Sa)-5-{3-chloro-2-methyl-4-[2-(4-methylpiperazin-1-yl)ethoxy]phenyl}-6-(4-fluorophenyl)thieno[2,3-d]pyrimidin-4-yl]oxy}-3-(2-methoxyphenyl)propanoic acid] yielded an IC50 [3] of 8e-08 M.
`Cc1c(-c2c(-c3ccncc3)sc3ncnc(OC(Cc4ccccc4)C(=O)O)c23)ccc(OCCN2CCN(C)CC2)c1Cl` [Example 507, (2R)-2-{[(5Sa)-5-{3-chloro-2-methyl-4-[2-(4-methylpiperazin-1-yl)ethoxy]phenyl}-6-(pyridin-4-yl)thieno[2,3-d]pyrimidin-4-yl]oxy}-3-phenylpropanoic acid] was tested, and the IC50 [2] was 2.2e-07 M.
`CCOC(=O)C(Cc1ccccc1OCc1ccnc(-c2ccccc2OCCOC)n1)Oc1ncnc2sc(-c3ccc(F)cc3)c(-c3ccc(OCCN(C)C)c(Cl)c3C)c12` [Example 806, ethyl (2R)-2-{[(5Sa)-5-{3-chloro-4-[2-(dimethylamino)ethoxy]-2-methylphenyl}-6-(4-fluorophenyl)thieno[2,3-d]pyrimidin-4-yl]oxy}-3-[2-({2-[2-(2-methoxyethoxy)phenyl]pyrimidin-4-yl}methoxy)phenyl]propanoate] showed an IC50 [1] of 1.63e-06 M.
Compound `COc1nccc(COc2ccccc2CC(Oc2ncnc3sc(-c4ccc(F)o4)c(-c4ccc(OCCN5CCN(C)CC5)c(Cl)c4C)c23)C(=O)O)n1` [Example 176, (2R)-2-{[(5Sa)-5-{3-chloro-2-methyl-4-[2-(4-methylpiperazin-1-yl)ethoxy]phenyl}-6-(5-fluorofuran-2-yl)thieno[2,3-d]pyrimidin-4-yl]oxy}-3-{2-[(2-methoxypyrimidin-4-yl)methoxy]phenyl}propanoic acid] has an IC50 [3] of 3.1e-09 M.
In the case of `CCCCCCCCOC(=O)[C@@H](Cc1ccccc1OC)Oc1ncnc2sc(-c3ccc(F)cc3)c(-c3ccc(OC)c(Cl)c3C)c12` [Example 851, octyl (2R)-2-{[(5Sa)-5-(3-chloro-4-methoxy-2-methylphenyl)-6-(4-fluorophenyl)thieno[2,3-d]pyrimidin-4-yl]oxy}-3-(2-methoxyphenyl)propanoate], the “percentage fluorescence polarisation inhibition (Mcl-1 FP), partial inhibitors” value (test compound at 10 uM, Method 1, or Method 2 where the value is underlined (underlining not visible)) is reported as 7.85% @ 10 uM.
`CCc1sc2ncnc(OC(Cc3ccccc3)C(=O)O)c2c1-c1ccc(OCCN(C)C)cc1C` [Example 410, (2R)-2-[((5Ra)-5-{4-[2-(dimethylamino)ethoxy]-2-methylphenyl}-6-ethylthieno[2,3-d]pyrimidin-4-yl)oxy]-3-phenylpropanoic acid] was tested, and the IC50 [2] was 2.2e-06 M.
`Cc1c(-c2c(-c3ccccc3)sc3ncnc(OC(Cc4ccccc4)C(=O)O)c23)ccc(OCCN2CCN(C)CC2)c1Cl` [Example 502, (2R)-2-[((5Sa)-5-{3-chloro-2-methyl-4-[2-(4-methylpiperazin-1-yl)ethoxy]phenyl}-6-phenylthieno[2,3-d]pyrimidin-4-yl)oxy]-3-phenylpropanoic acid] showed an IC50 [2] of 1.9e-08 M.
Compound `CC#Cc1sc2ncnc(OC(Cc3ccccc3OC)C(=O)O)c2c1-c1ccc(OCCN2CCOCC2)c(Cl)c1C` [Example 685, (2R)-2-{[(5Sa)-5-{3-chloro-2-methyl-4-[2-(morpholin-4-yl)ethoxy]phenyl}-6-(prop-1-yn-1-yl)thieno[2,3-d]pyrimidin-4-yl]oxy}-3-(2-methoxyphenyl)propanoic acid] has an IC50 [2] of 1.2e-08 M.
`CC#Cc1sc2ncnc(O[C@H](Cc3ccccc3OC)C(=O)O)c2c1-c1cc(N2CCN(C)CC2)c(OC)c(Cl)c1C` [Example 472, (2R)-2-({(5Ra)-5-[3-chloro-4-methoxy-2-methyl-5-(4-methylpiperazin-1-yl)phenyl]-6-(prop-1-yn-1-yl)thieno[2,3-d]pyrimidin-4-yl}oxy)-3-(2-methoxyphenyl)propanoic acid] was tested, and the “percentage fluorescence polarisation inhibition, Mcl-1 FP” value was 13.05% @ 10 uM.
Compound `Cc1c(-c2c(-c3ccc(F)o3)sc3ncnc(OC(Cc4ccccc4OCc4ccccn4)C(=O)O)c23)ccc(OCCN2CCN(C)CC2)c1Cl` (single isomer, unassigned) [Example 165] has an IC50 [3] of 1.6e-06 M.
`Cc1c(-c2c(-c3ccc(F)cc3)sc3ncnc(O[C@H](Cc4ccccc4OCc4ccnc(-c5ccccc5CO)n4)C(=O)O)c23)ccc(OCCN2CCN(C)CC2)c1Cl` [Example 728, (2R)-2-{[(5Sa)-5-{3-chloro-2-methyl-4-[2-(4-methylpiperazin-1-yl)ethoxy]phenyl}-6-(4-fluorophenyl)thieno[2,3-d]pyrimidin-4-yl]oxy}-3-[2-({2-[2-(hydroxymethyl)phenyl]pyrimidin-4-yl}methoxy)phenyl]propanoic acid] showed an IC50 [2] of 1.18e-09 M.
In the case of `CCOC(=O)C(Cc1ccccc1OCc1ccnc(-c2ccccc2OC)n1)Oc1ncnc2sc(-c3ccc(F)cc3)c(-c3ccc(OCCN4CCNCC4)c(Cl)c3C)c12` [Example 795, ethyl (2R)-2-{[(5Sa)-5-{3-chloro-2-methyl-4-[2-(piperazin-1-yl)ethoxy]phenyl}-6-(4-fluorophenyl)thieno[2,3-d]pyrimidin-4-yl]oxy}-3-(2-{[2-(2-methoxyphenyl)pyrimidin-4-yl]methoxy}phenyl)propanoate], the IC50 [1] is reported as 8.5e-07 M.
For `Cc1c(-c2c(-c3ccc(F)cc3)sc3ncnc(OC(Cc4ccccc4OCc4ccnn4C(C)C)C(=O)O)c23)ccc(OCCN2CCN(C)CC2)c1Cl` [Example 71, (2R)-2-{[(5Sa)-5-{3-chloro-2-methyl-4-[2-(4-methylpiperazin-1-yl)ethoxy]phenyl}-6-(4-fluorophenyl)thieno[2,3-d]pyrimidin-4-yl]oxy}-3-(2-{[1-(propan-2-yl)-1H-pyrazol-5-yl]methoxy}phenyl)propanoic acid], the IC50 [3] was 9.4e-09 M.
